Measured values as given in patent US12257287B2, “Glucagon-derived peptide and use thereof” (Tianjin Institute of Pharmaceutical Research Co., Ltd., priority 2018, dated 2025).
Numbered stars: 1 amine (or outer) side, 2 acyl side, 3 side chain; on linkers, the order of the positions; unused ones are H or OH. Square brackets hold non-standard residues; d marks the D form. Side chains are listed from the residue outwards. Peptide text beside a SMILES is read from it. * marks the point of attachment. C20 diacid = O=C(O)CCCCCCCCCCCCCCCCCCC(=O)*; C18 diacid = O=C(O)CCCCCCCCCCCCCCCCC(=O)*; γGlu = O=C(O)[C@H](CCC(=O)[*:2])N[*:1]; AEEA = NCCOCCOCC(=O)O; Aib = CC(C)(N)C(=O)O

Experiments:
[1] = Short-term administration: food intake and body weight in DIO mice; assay type: in vivo; details: 30 nmol/kg once every 24 h, twice, − decrease; for Rate of change in food intake (%): at 48 hours vs day before administration; for Body weight change: at 48 hours
Protocol: Method: diet-induced obese mice (DIO) with an average body weight of 52.5 g were divided into model control and test groups, 5 mice in each group. The test samples were dissolved in 10 mM PBS of pH7.4, injected once every 24 h at a dose of 30 nmol/kg, and administered twice. The model group was injected with solvent. Changes in food intake and body weight at 48 hours were measured, and the change rates were calculated compared to the day before administration.

GC receptor = biological target: T1, GC receptor (Homo sapiens, UniProt P47871); assay: GC receptor mediated cAMP production in vitro (HEK293 cells transfected with GC receptor); assay type: cell-based; details: 20 min at 37° C., read-out: GCGR (nM EC50)
T1 construct: expressed in transfected cells; host or cells: HEK293 cells
T1 sequence (P47871 26-477): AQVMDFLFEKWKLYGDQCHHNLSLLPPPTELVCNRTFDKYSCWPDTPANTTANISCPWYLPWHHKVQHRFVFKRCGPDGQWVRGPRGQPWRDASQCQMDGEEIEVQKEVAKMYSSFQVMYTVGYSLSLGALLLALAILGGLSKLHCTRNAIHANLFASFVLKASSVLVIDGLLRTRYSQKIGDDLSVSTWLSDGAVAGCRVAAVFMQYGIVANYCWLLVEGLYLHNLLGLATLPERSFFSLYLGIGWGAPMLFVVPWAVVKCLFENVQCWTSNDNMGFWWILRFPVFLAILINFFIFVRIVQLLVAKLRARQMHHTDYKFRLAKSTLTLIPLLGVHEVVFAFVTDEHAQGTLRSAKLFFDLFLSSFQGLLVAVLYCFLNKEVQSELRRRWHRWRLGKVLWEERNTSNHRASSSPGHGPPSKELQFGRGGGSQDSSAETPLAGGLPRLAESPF
Excerpt: The medium was removed, the cells were lysed, and cAMP values were detected referring to the detection method described for the assay kit.

physchem = assay type: physicochemical; details: pH 7.5, Solubility
[2] = Accelerated chemical stability in injection solvent system (HPLC-UV); assay type: physicochemical; details: 14 days, phosphate buffer pH 7.3 with Tween 80 and phenol, main peak area vs day 0
Protocol: The chemical stability of the compounds of the present invention in injection solution systems was evaluated by an accelerated stability test. Methods: an appropriate amount of compound of Example 1 was weighed, and dissolved in 10 mM pH8.5 sodium hydrogen phosphate buffer. The final pH value of the solution was adjusted to 7.3 with 0.1 N hydrochloric acid, and proper amounts of Tween 80 and phenol were added. The mixture was placed at 10° C. and 37° C. for 14 days, and detected by HPLC-UV. The main peak area was obtained by peak area normalization method, and the changes compared with day 0 were investigated. The HPLC detection method was the same as that in Example 6, and the mobile phase gradient was appropriately adjusted according to the situation of chromatographic peak separation.
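Wherever Solubility is given: compound added at 2 mg per mL of phosphate buffer, with the dissolved amount determined in the supernatant.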

Structure (SMILES)	EC50 (GC receptor) [nM]	solubility (physchem; pH 7.5, 10 mM phosphate buffer) [µg/mL]	solubility (physchem; pH 7.5, 20 mM phosphate buffer) [µg/mL]	Change in purity % (10° C.) [2] [%]	Change in purity % (37° C.) [2] [%]	Rate of change in food intake (%) [1] [%]	Body weight change [1] [g]
CC(C)C[C@H](NC(=O)[C@H](Cc1c[nH]c2ccccc12)NC(=O)[C@H](C)NC(=O)[C@@H](NC(=O)[C@H](Cc1ccccc1)NC(=O)[C@H](CCC(=O)O)NC(=O)[C@H](CCCCN)NC(=O)[C@H](C)NC(=O)[C@H](C)NC(=O)[C@H](CCCNC(=N)N)NC(=O)[C@H](CCC(=O)O)NC(=O)[C@H](CC(=O)O)NC(=O)[C@H](CC(C)C)NC(=O)[C@H](Cc1ccc(O)cc1)NC(=O)[C@H](CCCCN)NC(=O)[C@H](CO)NC(=O)[C@H](CCCCNC(=O)COCCOCCNC(=O)COCCOCCNC(=O)CC[C@H](NC(=O)CCCCCCCCCCCCCCCCCCC(=O)O)C(=O)O)NC(=O)[C@H](CC(=O)O)NC(=O)[C@H](CO)NC(=O)[C@@H](NC(=O)[C@H](Cc1ccccc1)NC(=O)[C@@H](NC(=O)CNC(=O)[C@H](CCC(N)=O)NC(=O)C(C)(C)NC(=O)[C@@H](N)Cc1c[nH]cn1)[C@@H](C)O)[C@@H](C)O)C(C)C)C(=O)N[C@@H](CCC(=O)O)C(=O)N[C@@H](C)C(=O)NCC(=O)NCC(=O)N1CCC[C@H]1C(=O)N[C@@H](CO)C(=O)N[C@@H](CO)C(=O)NCC(N)=O [Compound 13] (H-H[Aib]QGTFTSDK([AEEA-AEEA-γGlu-C20 diacid])SKYLDERAAKEFVAWLEAGGPSSG-NH2; N-terminus assumed)	0.033	> 2000	> 2000	−2.8	−6.9	−67	-2.3
CC[C@H](C)[C@H](NC(=O)[C@H](Cc1ccccc1)NC(=O)[C@H](CCC(=O)O)NC(=O)[C@H](CCCCN)NC(=O)[C@H](C)NC(=O)[C@H](C)NC(=O)[C@H](CCCNC(=N)N)NC(=O)[C@H](CCC(=O)O)NC(=O)[C@H](CC(=O)O)NC(=O)[C@H](CC(C)C)NC(=O)[C@H](Cc1ccc(O)cc1)NC(=O)[C@H](CCCCN)NC(=O)[C@H](CO)NC(=O)[C@H](CCCCNC(=O)COCCOCCNC(=O)COCCOCCNC(=O)CC[C@H](NC(=O)CCCCCCCCCCCCCCCCC(=O)O)C(=O)O)NC(=O)[C@H](CC(=O)O)NC(=O)[C@H](CO)NC(=O)[C@@H](NC(=O)[C@H](Cc1ccccc1)NC(=O)[C@@H](NC(=O)CNC(=O)[C@H](CCC(N)=O)NC(=O)[C@H](CO)NC(=O)[C@@H](N)Cc1c[nH]cn1)[C@@H](C)O)[C@@H](C)O)C(=O)N[C@@H](C)C(=O)N[C@@H](Cc1c[nH]c2ccccc12)C(=O)N[C@@H](CC(C)C)C(=O)N[C@@H](CCC(=O)O)C(=O)N[C@@H](C)C(=O)NCC(=O)NCC(=O)N1CCC[C@H]1C(=O)N[C@@H](CO)C(=O)N[C@@H](CO)C(=O)NCC(N)=O [Compound 36] (H-HSQGTFTSDK([AEEA-AEEA-γGlu-C18 diacid])SKYLDERAAKEFIAWLEAGGPSSG-NH2; N-terminus assumed)	0.069					−46	-1.7
CC[C@H](C)[C@H](NC(=O)[C@H](Cc1ccccc1)NC(=O)[C@H](CCC(=O)O)NC(=O)[C@H](CCCCNC(=O)COCCOCCNC(=O)COCCOCCNC(=O)CC[C@H](NC(=O)CCCCCCCCCCCCCCCCC(=O)O)C(=O)O)NC(=O)[C@H](C)NC(=O)[C@H](C)NC(=O)[C@H](CCCNC(=N)N)NC(=O)[C@H](CCC(=O)O)NC(=O)[C@H](CCC(=O)O)NC(=O)[C@H](CC(C)C)NC(=O)[C@H](Cc1ccc(O)cc1)NC(=O)[C@H](CCCCN)NC(=O)[C@H](CO)NC(=O)[C@H](Cc1ccc(O)cc1)NC(=O)[C@H](CC(=O)O)NC(=O)[C@H](CO)NC(=O)[C@@H](NC(=O)[C@H](Cc1ccccc1)NC(=O)[C@@H](NC(=O)CNC(=O)[C@H](CCC(N)=O)NC(=O)C(C)(C)NC(=O)[C@@H](N)Cc1c[nH]cn1)[C@@H](C)O)[C@@H](C)O)C(=O)N[C@@H](C)C(=O)N[C@@H](Cc1c[nH]c2ccccc12)C(=O)N[C@@H](CC(C)C)C(=O)N[C@@H](CCC(=O)O)C(=O)N[C@@H](C)C(=O)NCC(=O)NCC(=O)N1CCC[C@H]1C(=O)N[C@@H](CO)C(=O)N[C@@H](CO)C(=O)NCC(N)=O [Compound 28] (H-H[Aib]QGTFTSDYSKYLEERAAK([AEEA-AEEA-γGlu-C18 diacid])EFIAWLEAGGPSSG-NH2; N-terminus assumed)	0.026					−49	-1.3

Now from value to molecule, other results behind:

EC50 (GC receptor) [nM]	solubility (physchem; pH 7.5, 10 mM phosphate buffer) [µg/mL]	solubility (physchem; pH 7.5, 20 mM phosphate buffer) [µg/mL]	Change in purity % (10° C.) [2] [%]	Change in purity % (37° C.) [2] [%]	Structure (SMILES)	Rate of change in food intake (%) [1] [%]	Body weight change [1] [g]
0.261	> 2000	> 2000			CCCCCCCCCCCCCCCC(=O)N[C@@H](CCC(=O)N[C@@H](CCC(=O)NCCCC[C@H](NC(=O)[C@H](C)NC(=O)[C@H](CCCCN)NC(=O)[C@H](CCCNC(=N)N)NC(=O)[C@H](CCC(=O)O)NC(=O)[C@H](CC(=O)O)NC(=O)[C@H](CC(C)C)NC(=O)[C@H](Cc1ccc(O)cc1)NC(=O)[C@H](CCCCN)NC(=O)[C@H](CO)NC(=O)[C@H](Cc1ccc(O)cc1)NC(=O)[C@H](CC(=O)O)NC(=O)[C@H](CO)NC(=O)[C@@H](NC(=O)[C@H](Cc1ccccc1)NC(=O)[C@@H](NC(=O)CNC(=O)[C@H](CCC(N)=O)NC(=O)C(C)(C)NC(=O)[C@@H](N)Cc1c[nH]cn1)[C@@H](C)O)[C@@H](C)O)C(=O)N[C@@H](CCC(=O)O)C(=O)N[C@@H](Cc1ccccc1)C(=O)N[C@H](C(=O)N[C@@H](CCC(=O)O)C(=O)N[C@@H](Cc1c[nH]c2ccccc12)C(=O)N[C@@H](CC(C)C)C(=O)N[C@@H](CCC(=O)O)C(=O)NCC(=O)NCC(=O)N1CCC[C@H]1C(=O)N[C@@H](CO)C(=O)N[C@@H](CO)C(=O)NCC(N)=O)C(C)C)C(=O)O)C(=O)O [Compound 69] (HELM PEPTIDE1{H.[Aib].Q.G.T.F.T.S.D.Y.S.K.Y.L.D.E.R.K.A.K.E.F.V.E.W.L.E.G.G.P.S.S.G.[am]}|PEPTIDE2{[CCCCCCCCCCCCCCCC(=O)[*:2]].[gGlu].[gGlu]}$PEPTIDE1,PEPTIDE2,20:R3-3:R2$$$V2.0; N-terminus assumed)		
0.018	> 2000	> 2000	−2.0	−5.7	CC(C)C[C@H](NC(=O)[C@H](Cc1c[nH]c2ccccc12)NC(=O)[C@H](C)NC(=O)[C@@H](NC(=O)[C@H](Cc1ccccc1)NC(=O)[C@H](CCC(=O)O)NC(=O)[C@H](CCCCN)NC(=O)[C@H](C)NC(=O)[C@H](C)NC(=O)[C@H](CCCNC(=N)N)NC(=O)[C@H](CCC(=O)O)NC(=O)[C@H](CCC(=O)O)NC(=O)[C@H](CC(C)C)NC(=O)[C@H](Cc1ccc(O)cc1)NC(=O)[C@H](CCCCN)NC(=O)[C@H](CO)NC(=O)[C@H](CCCCNC(=O)COCCOCCNC(=O)COCCOCCNC(=O)CC[C@H](NC(=O)CCCCCCCCCCCCCCCCC(=O)O)C(=O)O)NC(=O)[C@H](CC(=O)O)NC(=O)[C@H](CO)NC(=O)[C@@H](NC(=O)[C@H](Cc1ccccc1)NC(=O)[C@@H](NC(=O)CNC(=O)[C@H](CCC(N)=O)NC(=O)C(C)(C)NC(=O)[C@@H](N)Cc1c[nH]cn1)[C@@H](C)O)[C@@H](C)O)C(C)C)C(=O)N[C@@H](CCC(=O)O)C(=O)N[C@@H](C)C(=O)NCC(=O)NCC(=O)N1CCC[C@H]1C(=O)N[C@@H](CO)C(=O)N[C@@H](CO)C(=O)NCC(N)=O [Compound 22] (H-H[Aib]QGTFTSDK([AEEA-AEEA-γGlu-C18 diacid])SKYLEERAAKEFVAWLEAGGPSSG-NH2; N-terminus assumed)	−62	-2.6
